Experiments:
Assay in all cases: NCI 60 cell line single dose screen (SRB)
Format in all cases: cell-based
MDA-MB-468 = conditions: Homo sapiens; MDA-MB-468 (breast cancer), single dose 10^−5 M, 48 h; read-out: Growth inhibition percentage
Experimental: (§1) Anticancer activity screening of the newly synthesised compounds was measured in vitro utilising 60 different human tumour cell lines provided by US National Cancer Institute according to previously reported standard procedure[27–29] as follows: Cells are inoculated into 96-well microtitre plates in 100 ml. After cell inoculation, the microtitre plates are incubated at 37 °C, 5% CO2, 95% air and 100% relative humidity for 24 h prior to addition of experimental compounds. After 24 h, two plates of each cell line are fixed in situ with TCA, to represent a measurement of the cell population for each cell line at the time of drug addition (Tz). Experimental compounds are solubilised in dimethyl sulphoxide at 400-fold the desired final maximum test concentration and stored frozen prior to use. At the time of compound addition, an aliquot of frozen concentrate is thawed and diluted to twice the desired final maximum test concentration with complete medium containing […] gentamicin. Aliquots of […] of the compounds dilutions are added to the appropriate microtitre wells already containing 100 ml of medium, resulting in the required final compound concentration. Following compound addition, the plates are incubated for an additional 48 h at 37 °C, 5% CO2, 95% air, and 100% relative humidity. For adherent cells, the assay is terminated by the addition of cold trichloroacetic acid (TCA). Cells are fixed in situ by the gentle addition of 50 ml of cold 50% (w/v) TCA (final concentration, 10% TCA) and incubated for 60 min at 4 °C. The supernatant is discarded, and the plates are washed five times with tap water and air-dried. Sulphorhodamine B (SRB) solution (100 ml) at 0.4% (w/v) in 1% acetic acid is added to each well, and plates are incubated for 10 min at room temperature. After staining, unbound dye is removed by washing five times with 1% acetic acid and the plates are air-dried. Bound stain is subsequently solubilised with 10 mM trizma base, and the absorbance is read on an automated plate reader at a wavelength of 515 nm. For suspension cells, the methodology is the same except that the assay is terminated by fixing settled cells at the bottom of the wells by gently adding 50 ml of 80% TCA (final concentration, 16% TCA). Using the absorbance measurements [time zero, (Tz), control growth, (C), and test growth in the presence of compound (Ti)], the percentage growth is calculated for each compound. Percentage growth inhibition is calculated as: [(Ti – Tz)/(C – Tz)] x 100 for concentrations for which Ti >/=Tz. [(Ti – Tz)/Tz] x 100 for concentrations for which Ti < Tz.

A549/ATCC = conditions: Homo sapiens; A549/ATCC (non-small cell lung cancer), single dose 10^−5 M, 48 h; read-out: Growth inhibition percentage
Experimental: as §1

MALME-3M = conditions: Homo sapiens; MALME-3M (melanoma), single dose 10^−5 M, 48 h; read-out: Growth inhibition percentage
Experimental: as §1

SK-MEL-5 = conditions: Homo sapiens; SK-MEL-5 (melanoma), single dose 10^−5 M, 48 h; read-out: Growth inhibition percentage
Experimental: as §1

HCT-15 = conditions: Homo sapiens; HCT-15 (colon cancer), single dose 10^−5 M, 48 h; read-out: Growth inhibition percentage
Experimental: as §1

ACHN = conditions: Homo sapiens; ACHN (renal cancer), single dose 10^−5 M, 48 h; read-out: Growth inhibition percentage
Experimental: as §1

SK-MEL-2 = conditions: Homo sapiens; SK-MEL-2 (melanoma), single dose 10^−5 M, 48 h; read-out: Growth inhibition percentage
Experimental: as §1

OVCAR-5 = conditions: Homo sapiens; OVCAR-5 (ovarian cancer), single dose 10^−5 M, 48 h; read-out: Growth inhibition percentage
Experimental: as §1

SF-295 = conditions: Homo sapiens; SF-295 (CNS cancer), single dose 10^−5 M, 48 h; read-out: Growth inhibition percentage
Experimental: as §1

CCRF-CEM = conditions: Homo sapiens; CCRF-CEM (leukemia), single dose 10^−5 M, 48 h; read-out: Growth inhibition percentage
Experimental: as §1

MDA-MB-231/ATCC = conditions: Homo sapiens; MDA-MB-231/ATCC (breast cancer), single dose 10^−5 M, 48 h; read-out: Growth inhibition percentage
Experimental: as §1

HT29 = conditions: Homo sapiens, HT-29; HT29 (colon cancer), single dose 10^−5 M, 48 h; read-out: Growth inhibition percentage
Experimental: as §1

HCT-116 = conditions: Homo sapiens; HCT-116 (colon cancer), single dose 10^−5 M, 48 h; read-out: Growth inhibition percentage
Experimental: as §1

OVCAR-8 = conditions: Homo sapiens; OVCAR-8 (ovarian cancer), single dose 10^−5 M, 48 h; read-out: Growth inhibition percentage
Experimental: as §1

A498 = conditions: Homo sapiens; A498 (renal cancer), single dose 10^−5 M, 48 h; read-out: Growth inhibition percentage
Experimental: as §1

DU-145 = conditions: Homo sapiens; DU-145 (prostate cancer), single dose 10^−5 M, 48 h; read-out: Growth inhibition percentage
Experimental: as §1

UACC-257 = conditions: Homo sapiens; UACC-257 (melanoma), single dose 10^−5 M, 48 h; read-out: Growth inhibition percentage
Experimental: as §1

HL-60(TB) = conditions: Homo sapiens; HL-60(TB) (leukemia), single dose 10^−5 M, 48 h; read-out: Growth inhibition percentage
Experimental: as §1

NCI-H460 = conditions: Homo sapiens; NCI-H460 (non-small cell lung cancer), single dose 10^−5 M, 48 h; read-out: Growth inhibition percentage
Experimental: as §1

NCI/ADR-RES = conditions: Homo sapiens; NCI/ADR-RES (ovarian cancer), single dose 10^−5 M, 48 h; read-out: Growth inhibition percentage
Experimental: as §1

OVCAR-3 = conditions: Homo sapiens; OVCAR-3 (ovarian cancer), single dose 10^−5 M, 48 h; read-out: Growth inhibition percentage
Experimental: as §1

Compound | inhibition at 10 µM (MDA-MB-468) [%] | inhibition at 10 µM (A549/ATCC) [%] | inhibition at 10 µM (MALME-3M) [%] | inhibition at 10 µM (SK-MEL-5) [%] | inhibition at 10 µM (HCT-15) [%] | inhibition at 10 µM (ACHN) [%] | inhibition at 10 µM (SK-MEL-2) [%] | inhibition at 10 µM (OVCAR-5) [%] | inhibition at 10 µM (SF-295) [%] | inhibition at 10 µM (CCRF-CEM) [%] | inhibition at 10 µM (MDA-MB-231/ATCC) [%] | inhibition at 10 µM (HT29) [%] | inhibition at 10 µM (HCT-116) [%] | inhibition at 10 µM (OVCAR-8) [%] | inhibition at 10 µM (A498) [%] | inhibition at 10 µM (DU-145) [%] | inhibition at 10 µM (UACC-257) [%] | inhibition at 10 µM (HL-60(TB)) [%] | inhibition at 10 µM (NCI-H460) [%] | inhibition at 10 µM (NCI/ADR-RES) [%] | also measured
Cc1nn(-c2ccc(F)cc2)c2ncnc(N3CCN(c4ccc(Cl)cc4)CC3)c12 [Compound 8c, 4–(4-(4-Chlorophenyl)piperazin-1-yl)-1–(4-fluorophenyl)-3-methyl-1H-pyrazolo[3,4-d]pyrimidine] | -3.83 | -3.31 | 4.22 | 5.22 | -8.49 | 2.13 | 9.37 | -2.91 | -0.93 | -8.74 | 7.92 | 5.97 | 1.69 | 3.66 | 9.66 | -5.88 | -0.44 | 25.5 | -4.35 | 6.62 | inhibition at 10 µM (OVCAR-3): 1.21%
COc1ccc(N2CCN(c3ncnc4c3c(C)nn4-c3ccc(F)cc3)CC2)cc1 [Compound 8d, 1–(4-Fluorophenyl)-4–(4-(4-methoxyphenyl)piperazin-1-yl)-3-methyl-1H-pyrazolo[3,4-d]pyrimidine] | 0.37 | -4.08 | 5.14 | -1.01 | -5.55 | -0.34 | -1.69 | -7.96 | -2.4 | 0.86 | 2.36 | -1.26 | 7.42 | 1.33 | -0.85 | -11.2 | -6.35 | 11.8 | -4.87 | -3.7 | inhibition at 10 µM (OVCAR-3): -8.47%
Cc1nn(-c2ccc(F)cc2)c2ncnc(NN)c12 [Compound 9, 1–(4-Fluorophenyl)-4-hydrazinyl-3-methyl-1H-pyrazolo[3,4-d]-pyrimidine] | 18.5 | -5.98 | 19 | 3.85 | -5.82 | 2.07 | 18.3 | -7.64 | -3.92 | 30.9 | 23.1 | 1.62 | 3.99 | 1.29 | 1.48 | -0.84 | -3.21 | 11.8 | -11.7 | 3.79 | inhibition at 10 µM (OVCAR-3): 32.2%
COc1cc(C=NNc2ncnc3c2c(C)nn3-c2ccc(F)cc2)ccc1O [Compound 10b, 1–(4-Fluorophenyl)-4–(2-(4-hydroxy-3-methoxybenzylidene)-hydrazinyl)-3-methyl-1H-pyrazolo[3,4-d]pyrimidine] | 8.05 | 2.36 | -12.4 | 43.4 | 18.9 | 7.34 | 10.2 | -30.9 | -5.51 | 38 | 15.6 | 7.7 | -4.51 | 3.64 | -3.34 | 12.4 | -14.1 | 1.69 | 11.9 | 4.3 | inhibition at 10 µM (OVCAR-3): 24.2%
COc1cc(C=NNc2ncnc3c2c(C)nn3-c2ccc(F)cc2)cc(OC)c1OC [Compound 10c, 1–(4-Fluorophenyl)-3-methyl-4–(2-(3,4,5-trimethoxybenzylidene)-hydrazinyl)-1H-pyrazolo[3,4-d]pyrimidine] | -4.81 | -0.67 | 12.6 | 15.3 | -5.3 | 4.01 | -1.74 | -11.4 | -2.66 | 4.81 | 16.5 | 8.83 | 3.15 | -1.23 | 22 | -4.94 | 0.35 | -4.11 | -3.23 | -2.25 | inhibition at 10 µM (OVCAR-3): -0.3%
